These compounds were tested against T1, human liver GK (Homo sapiens, UniProt P35557) (assay: GK activation test). Details: test compound concentration needed to activate 50% of maximum activation ability; 4 mM 14C-labeled glucose, 2 mM ATP, room temperature, 20 minutes.
T1 construct: GST (glutathione S-transferase) (N); made in house; host or cells: E. coli
T1 sequence (P35557 1-466 isoform P35557-2): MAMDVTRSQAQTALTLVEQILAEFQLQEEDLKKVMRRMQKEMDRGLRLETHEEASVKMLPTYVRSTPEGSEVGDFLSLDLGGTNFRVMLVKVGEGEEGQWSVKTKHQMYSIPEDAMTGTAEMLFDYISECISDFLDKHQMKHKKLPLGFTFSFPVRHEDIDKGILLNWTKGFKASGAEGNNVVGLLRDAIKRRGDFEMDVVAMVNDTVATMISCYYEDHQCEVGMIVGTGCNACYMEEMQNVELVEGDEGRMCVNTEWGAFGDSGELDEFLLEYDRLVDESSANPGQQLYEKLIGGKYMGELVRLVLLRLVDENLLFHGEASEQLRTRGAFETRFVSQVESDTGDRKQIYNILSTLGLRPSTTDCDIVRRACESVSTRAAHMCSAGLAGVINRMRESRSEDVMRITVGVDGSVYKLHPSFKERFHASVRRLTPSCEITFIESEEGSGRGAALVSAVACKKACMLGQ
Format: biochemical
Summary of the method: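 GST-tagged human liver GK from E. coli (0.24 μg/well) with 4 mM 14C-glucose, 2 mM ATP in Hepes-KOH pH 7.1, KCl, MgCl2, DTT, 1% DMSO, 20 min room temperature. Labeled glucose 6-phosphate captured on anion resin, eluted and counted. EC50 = concentration giving half of maximal activation.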

| SMILES | EC50 |
| --- | --- |
| O=C1CC[C@H](/C=C(\c2ccc(Cl)c(C(F)(F)F)c2)c2ccc(C3CC3)c(=O)[nH]2)N1 [Example 4-105, 6-{(E)-1-[4-Chloro-3-(trifluoromethyl)phenyl]-2-[(2R)-5-oxopyrrolidin-2-yl]ethenyl}-3-cyclopropylpyridin-2(1H)-one] | 0.01 to 0.5 µM |
| Cc1cc(/C(=C\[C@H]2CCC(=O)N2)c2ccc(C3CC3)c(=O)[nH]2)ccc1Cl [Example 4-107, 6-{(E)-1-(4-Chloro-3-methylphenyl)-2-[(2R)-5-oxopyrrolidin-2-yl]ethenyl}-3-cyclopropylpyridin-2(1H)-one] | 0.01 to 0.5 µM |
| O=C1CC[C@H](/C=C(\c2ccc(C(F)(F)F)nc2)c2ccc(C3CC3)c(=O)[nH]2)N1 [Example 4-108, 3-Cyclopropyl-6-{(E)-2-[(2R)-5-oxopyrrolidin-2-yl]-1-[6-(trifluoromethyl)pyridin-3-yl]ethenyl}pyridin-2(1H)-one] | 0.5 to 3 µM |
| Cc1ccc(/C(=C\[C@H]2CCC(=O)N2)c2ccc(C3CC3)c(=O)[nH]2)c(Cl)c1 [Example 4-109, 6-{(E)-1-(2-Chloro-4-methylphenyl)-2-[(2R)-5-oxopyrrolidin-2-yl]ethenyl}-3-cyclopropylpyridin-2(1H)-one] | 0.5 to 3 µM |
| O=C1CC[C@H](/C=C(/c2ccc(C3CC3)c(=O)[nH]2)c2ccc(Cl)cc2C(F)(F)F)N1 [Example 4-110, 6-{(E)-1-[4-Chloro-2-(trifluoromethyl)phenyl]-2-[(2R)-5-oxopyrrolidin-2-yl]ethenyl}-3-cyclopropylpyridin-2(1H)-one] | 0.5 to 3 µM |
| Cc1ccc(/C(=C\[C@H]2CCC(=O)N2)c2ccc(C3CC3)c(=O)[nH]2)cc1C [Example 4-115, 3-Cyclopropyl-6-{(E)-1-(3,4-dimethylphenyl)-2-[(2R)-5-oxopyrrolidin-2-yl]ethenyl}pyridin-2(1H)-one] | 0.01 to 0.5 µM |
| O=C1CC[C@H](/C=C(/c2ccc(C3CC3)c(=O)[nH]2)c2ccc(C(F)(F)F)cc2C(F)(F)F)N1 [Example 4-118, 6-{(E)-1-[2,4-Bis(trifluoromethyl)phenyl]-2-[(2R)-5-oxopyrrolidin-2-yl]ethenyl}-3-cyclopropylpyridin-2(1H)-one] | 3 to 10 µM |
| O=C1CC[C@H](/C=C(\c2cc(C(F)(F)F)cc(C(F)(F)F)c2)c2ccc(C3CC3)c(=O)[nH]2)N1 [Example 4-119, 6-{(E)-1-[3,5-Bis(trifluoromethyl)phenyl]-2-[(2R)-5-oxopyrrolidin-2-yl]ethenyl}-3-cyclopropylpyridin-2(1H)-one] | 0.5 to 3 µM |
| O=C1CC[C@H](/C=C(\c2ccc(Cl)nc2)c2ccc(C3CC3)c(=O)[nH]2)N1 [Example 4-120, 6-{(E)-1-(6-Chloropyridin-3-yl)-2-[(2R)-5-oxopyrrolidin-2-yl]ethenyl}-3-cyclopropylpyridin-2(1H)-one] | 0.5 to 3 µM |
| O=C1CC[C@H](/C=C(\c2ccc(F)nc2)c2ccc(C3CC3)c(=O)[nH]2)N1 [Example 4-121, 3-Cyclopropyl-6-{(E)-1-(6-fluoropyridin-3-yl)-2-[(2R)-5-oxopyrrolidin-2-yl]ethenyl}pyridin-2(1H)-one] | 3 to 10 µM |
| O=C1CC[C@H](/C=C(/c2ccc(C3CC3)c(=O)[nH]2)c2ccc(F)cc2O)N1 [Example 4-122, 3-Cyclopropyl-6-{(E)-1-(4-fluoro-2-hydroxyphenyl)-2-[(2R)-5-oxopyrrolidin-2-yl]ethenyl}pyridin-2(1H)-one] | 0.01 to 0.5 µM |
| O=C1CC[C@H](/C=C(\c2ccc3c(c2)CCO3)c2ccc(C3CC3)c(=O)[nH]2)N1 [Example 4-123, 3-Cyclopropyl-6-{(E)-1-(2,3-dihydro-1-benzofuran-5-yl)-2-[(2R)-5-oxopyrrolidin-2-yl]ethenyl}pyridin-2(1H)-one] | 0.01 to 0.5 µM |
| COc1cc(/C(=C\[C@H]2CCC(=O)N2)c2ccc(C3CC3)c(=O)[nH]2)ccc1Cl [Example 4-124, 6-{(E)-1-(4-Chloro-3-methoxyphenyl)-2-[(2R)-5-oxopyrrolidin-2-yl]ethenyl}-3-cyclopropylpyridin-2(1H)-one] | 0.01 to 0.5 µM |
| CCc1cc(/C(=C\[C@H]2CCC(=O)N2)c2ccc(C3CC3)c(=O)[nH]2)ccc1Cl [Example 4-125, 6-{(E)-1-(4-Chloro-3-ethylphenyl)-2-[(2R)-5-oxopyrrolidin-2-yl]ethenyl}-3-cyclopropylpyridin-2(1H)-one] | 0.01 to 0.5 µM |
| O=C1CC[C@H](/C=C(\c2ccc(OC(F)(F)F)cc2)c2ccc(C3CC3)c(=O)[nH]2)N1 [Example 4-126, 3-Cyclopropyl-6-{(E)-2-[(2R)-5-oxopyrrolidin-2-yl]-1-[4-(trifluoromethoxy)phenyl]ethenyl}pyridin-2(1H)-one] | 0.01 to 0.5 µM |
| O=C1CC[C@H](/C=C(\c2ccc(OC(F)F)cc2)c2ccc(C3CC3)c(=O)[nH]2)N1 [Example 4-127, 3-Cyclopropyl-6-{(E)-1-[4-(difluoromethoxy)phenyl]-2-[(2R)-5-oxopyrrolidin-2-yl]ethenyl}pyridin-2(1H)-one] | 0.01 to 0.5 µM |

Other lines, results leading:

| EC50 | SMILES |
| --- | --- |
| 0.5 to 3 µM | O=C1CC[C@H](/C=C(\c2ccc(F)c(Cl)c2)c2ccc(C3CC3)c(=O)[nH]2)N1 [Example 4-104, 6-{(E)-1-(3-Chloro-4-fluorophenyl)-2-[(2R)-5-oxopyrrolidin-2-yl]ethenyl}-3-cyclopropylpyridin-2(1H)-one] |
| 0.01 to 0.5 µM | Cc1ccc(/C(=C\[C@H]2CCC(=O)N2)c2ccc(C3CC3)c(=O)[nH]2)cc1Cl [Example 4-106, 6-{(E)-1-(3-Chloro-4-methylphenyl)-2-[(2R)-5-oxopyrrolidin-2-yl]ethenyl}-3-cyclopropylpyridin-2(1H)-one] |
| 0.01 to 0.5 µM | O=C1CC[C@H](/C=C(\c2ccc(Cl)c(F)c2)c2ccc(C3CC3)c(=O)[nH]2)N1 [Example 4-111, 6-{(E)-1-(4-Chloro-3-fluorophenyl)-2-[(2R)-5-oxopyrrolidin-2-yl]ethenyl}-3-cyclopropylpyridin-2(1H)-one] |
| 0.5 to 3 µM | O=C1CC[C@H](/C=C(\c2ccc(F)c(F)c2)c2ccc(C3CC3)c(=O)[nH]2)N1 [Example 4-112, 3-Cyclopropyl-6-{(E)-1-(3,4-difluorophenyl)-2-[(2R)-5-oxopyrrolidin-2-yl]ethenyl}pyridin-2(1H)-one] |
| 0.5 to 3 µM | Cc1cc(/C(=C\[C@H]2CCC(=O)N2)c2ccc(C3CC3)c(=O)[nH]2)ccc1F [Example 4-113, 3-Cyclopropyl-6-{(E)-1-(4-fluoro-3-methylphenyl)-2-[(2R)-5-oxopyrrolidin-2-yl]ethenyl}pyridin-2(1H)-one] |
| 0.01 to 0.5 µM | Cc1ccc(/C(=C\[C@H]2CCC(=O)N2)c2ccc(C3CC3)c(=O)[nH]2)cc1F [Example 4-114, 3-Cyclopropyl-6-{(E)-1-(3-fluoro-4-methylphenyl)-2-[(2R)-5-oxopyrrolidin-2-yl]ethenyl}pyridin-2(1H)-one] |
| 0.01 to 0.5 µM | O=C1CC[C@H](/C=C(\c2ccc(C(F)(F)F)c(F)c2)c2ccc(C3CC3)c(=O)[nH]2)N1 [Example 4-116, 3-Cyclopropyl-6-{(E)-1-[3-fluoro-4-(trifluoromethyl)phenyl]-2-[(2R)-5-oxopyrrolidin-2-yl]ethenyl}pyridin-2(1H)-one] |
| 0.5 to 3 µM | O=C1CC[C@H](/C=C(\c2ccc(F)c(C(F)(F)F)c2)c2ccc(C3CC3)c(=O)[nH]2)N1 [Example 4-117, 3-Cyclopropyl-6-{(E)-1-[4-fluoro-3-(trifluoromethyl)phenyl]-2-[(2R)-5-oxopyrrolidin-2-yl]ethenyl}pyridin-2(1H)-one] |

Source: patent US8822503B2, “2-pyridone compounds” (Taisho Pharmaceutical Co., Ltd, priority 2009, dated 2014)
